Laboratory results: patent US10967029B2, “Method of using Cistanche tubulosa extract to prevent, slow down, or treat an eye disease caused by oxidative stress” (Sinphar Pharmaceutical Co., Ltd., priority 2014, dated 2021)
Converted amounts (≈) assume the structure as drawn. Where two headings read alike, the source gives them in different places.

Assays:
RPE cells [1] = test: Protective effect to blue light irradiation-induced cytotoxicity (MTT assay); conditions: for most effective action concentration range to blue light irradiation: blue light-induced cytotoxicity
Procedure: (§1) The cell culturing comprises the following steps. • 1. RPE cell clones were taken out from anti-frozen tubes in liquid nitrogen and quickly moved to a sterile hood after thawed in 37° C. water bath for 1 minute. RPE cell clones were taken out and placed in 10 cm dishes having 10 mL DMEM (Dulbecco's Modified Eagle Medium) therein. 10% inactivated fetal bovine serum (FBS), 2 mM L-glutamine, 100 U/mL penicillin, and 100 µg/mL streptomycin were added into the DMEM. • 2. The dishes were placed in a 37° C. incubator and cultured in conditions of a mixture gas of 95% air and 5% CO2, as well as 70% humidity. The old mediums were replaced by fresh mediums every 3 days. Serum-free DMEM was used instead of the mediums before performing experiments. • 3. When cells proliferated to nearly saturation, the numbers of cells were counted by a cell counter. […] Since RPE cells are attachment type cells, the medium containing the cells was transferred into 15 mL centrifugation tubes and then centrifuged at 72 g for 5 mines at room temperature when the medium was replaced. After centrifugation, the supernatant was removed and then fresh medium was added for culturing.
Before experiment, the medium was replaced by serum-free medium. Fixed quantity of RPE cells (2×10^5 cells/mL) were respectively placed in 96 wells of a plate. […] Next, different concentrations of oxidative stress inducer were added to treat the cells. […] The blue light having a wavelength of 480 nm and an illuminance of 350 lux was emitted by a blue light-emitting-diode (LED). […] Afterwards, 200 μL DMSO was added to each well. After slight mixing, the plate was vibrated in the dark for 10 minutes. After completely dissolving the residual cells, the enzyme immunoassay analyzer was used to detect the absorbance of each well. The cells untreated by oxidative stress inducers and embodiments were used as the control group.
The statistical analysis was performed by Student's t-test or one way ANOVA. If P<0.05, it indicates a significant difference.
The concentrations of embodiment 3 were 15.625, 31.25, and 62.5 μg/mL. […]

RPE cells [2] = format: cell-based; conditions: 0.1 mM H2O2
Procedure: as §1
(§2) Before experiment, the medium was replaced by serum-free medium. Fixed quantity of RPE cells (2×10^5 cells/mL) were respectively placed in 96 wells of a plate. […] Next, different concentrations of oxidative stress inducer were added to treat the cells. […] The blue light having a wavelength of 480 nm and an illuminance of 350 lux was emitted by a blue light-emitting-diode (LED). Subsequently after treated by irradiating with blue light for 7 days or oxidative stress inducer for 24 hours, 0.5 mg/mL of MTT was added and reacted at 37° C. for 2 hours. Afterwards, 200 μL DMSO was added to each well. After slight mixing, the plate was vibrated in the dark for 10 minutes. After completely dissolving the residual cells, the enzyme immunoassay analyzer was used to detect the absorbance of each well. The cells untreated by oxidative stress inducers and embodiments were used as the control group. […]

RPE cells [3] = test: Cell viability and growth measurement of RPE cells (MTT assay), cytotoxicity test; format: cell-based; conditions: cytotoxicity to RPE cells, 24 hours
Procedure: The cell culturing comprises the following steps. • 1.
Before experiments, the medium was replaced by serum-free medium. […] After placed in an incubator, the cells were cultured for 24 hours after treated by various concentrations of embodiments 1-5. Next, 1.0 mg/mL 3-(4,5-Dimethylthiazol-2-yl)-2,5-diphenyltetrazolium bromide (MTT) was added and reacted at 37° C. for 1 hour. Afterwards, 200 μL dimethyl sulfoxide (DMSO) was added into each well and shake in the dark at room temperature for 10 minutes after slight mixing. After the residual cells were completely dissolved, an enzyme immunoassay analyzer (MRX microplate reader, USA) was used to detect the 550 nm absorbance of each well. The cells untreated by embodiments were used as a control group after culturing for 24 hours.
One purpose of the example 1 is to test the cytotoxicity of the embodiments 1-5 to the RPE cells and the promotion of the embodiments 1-5 to the RPE cell growth. The mitochondrial enzyme of live cells can reduce the MTT to formazan of purple crystal dissolved by DMSO. In short, the metabolic activity of cells is used to determine whether cells are alive or not. The measured dissolving absorbance is equal to the cell viability. Therefore, the more the cells alive, the higher the absorbance. The calculating formula of the cell viability was shown below. Cell viability (%)=(light absorbance after cells treated by drugs for 24 hours/light absorbance of the control group after 24 hours)×100%
If P<0.05, it indicates a significant difference.
Referring to FIGS. 1-5, which are diagrams showing cytotoxicity testing results according to the instant disclosure respectively.

RPE cells [4] = conditions: for most effective action concentration range to t-BHP: t-BHP-induced cytotoxicity
Procedure: as §1, §2

RPE cells [5] = test: Protective effect to NaN3-induced cytotoxicity (MTT assay); conditions: 10 mM NaN3 (viability about 50% without treatment); medium and high concentrations
Procedure: as §1, with “After centrifugation, the supernatant was removed and then fresh medium was added for culturing.” left out
Before experiment, the medium was replaced by serum-free medium. Fixed quantity of RPE cells (2×10^5 cells/mL) were respectively placed in 96 wells of a plate. […] After completely dissolving the residual cells, the enzyme immunoassay analyzer was used to detect the absorbance of each well. […]

Compound | cell viability (RPE cells [1]; 5 days, 31.25 µg/mL) | most effective action concentration range to blue light irradiation (RPE cells [1]) | protection of cells from H2O2 damage (RPE cells [2]) | IC25 (RPE cells [3]) | IC75 (RPE cells [3]) | IC50 (RPE cells [3]; read-out: IC50) | cytotoxicity response at high concentration (RPE cells [4]) | most effective action concentration range to t-BHP (RPE cells [4]) | cell viability (RPE cells [5]) | IC50 (RPE cells [3])
C[C@@H]1O[C@@H](O[C@@H]2[C@@H](O)[C@H](OCCc3ccc(O)c(O)c3)O[C@H](CO)[C@H]2OC(=O)/C=C/c2ccc(O)c(O)c2)[C@H](O)[C@H](O)[C@H]1O [Embodiment 3, Acteoside] | above 90% | between low and medium concentrations | protected | 31.25 µg/mL (≈ 50 µM) | 125 µg/mL (≈ 200 µM) | 62.5 µg/mL (≈ 100 µM) | reasonable cytotoxicity responses were observed | between low and medium concentrations | – | –
C[C@@H]1O[C@@H](O[C@@H]2[C@@H](O)[C@H](OCCc3ccc(O)c(O)c3)O[C@H](COC(=O)/C=C/c3ccc(O)c(O)c3)[C@H]2O)[C@H](O)[C@H](O)[C@H]1O [Embodiment 4, Isoacteoside] | – | between low and medium concentrations | – | 31.25 µg/mL (≈ 50 µM) | 125 µg/mL (≈ 200 µM) | 62.5 µg/mL (≈ 100 µM) | – | – | ~100% | –
Tubuloside A [Embodiment 5] | – | – | protected | 150 µg/mL | 250 µg/mL | – | – | – | ~100% | 200 µg/mL
echinacoside [Embodiment 2] | – | – | protected | 50 µg/mL | 100 µg/mL | – | – | between low and medium concentrations | – | 75 µg/mL
